From paper PMC8689225, “Cardiac ryanodine receptor N-terminal region biosensors identify novel inhibitors via FRET-based high-throughput screening” (The Journal of Biological Chemistry, 2021)
pEC50: −log10 of the molar value. Read-outs that look alike come from different tables or passages of the source.

Legend:
[1] = target: T1, mouse RyR2 NTR (Mus musculus, UniProt E9Q401, K30C/K441C, form not given); assay: FLT-FRET dose-response with AC-NTR biosensor; format: binding; settings: for decrease of donor-only FLT as share of the FLT change in the donor-acceptor sample: interference control, designated interfering compounds; for saturation of FRET dose-response: decreased FLT; for saturation of FRET dose-response / ΔFLT: 0 to 100 μM; for ΔFLT: CPNQ/corbadrine decrease FLT, FA/tacrolimus increase FLT
T1 sequence (E9Q401 1-547 K30C/K441C): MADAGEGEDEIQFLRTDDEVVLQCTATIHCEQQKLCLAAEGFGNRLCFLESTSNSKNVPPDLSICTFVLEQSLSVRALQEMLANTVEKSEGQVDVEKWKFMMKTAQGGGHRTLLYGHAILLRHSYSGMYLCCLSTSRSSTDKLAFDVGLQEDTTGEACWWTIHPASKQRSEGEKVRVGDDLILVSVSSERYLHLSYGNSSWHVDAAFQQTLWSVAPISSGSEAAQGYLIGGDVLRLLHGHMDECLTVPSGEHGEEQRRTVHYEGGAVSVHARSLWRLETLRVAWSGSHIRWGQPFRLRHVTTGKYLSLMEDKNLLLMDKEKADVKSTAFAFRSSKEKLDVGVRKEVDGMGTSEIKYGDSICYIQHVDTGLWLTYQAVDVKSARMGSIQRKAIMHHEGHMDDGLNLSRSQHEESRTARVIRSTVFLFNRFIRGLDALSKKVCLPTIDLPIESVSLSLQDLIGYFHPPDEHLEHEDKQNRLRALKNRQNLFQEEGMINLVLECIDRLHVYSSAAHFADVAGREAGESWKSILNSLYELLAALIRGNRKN
Description: The NTR of mouse RyR2 (residues 1–547) was cloned and expressed as previously described ([27]). The DNA construct contains a 6×His tag, a maltose-binding protein (MBP) tag, and a tobacco etch virus (TEV) protease cleavage site. The seven native solvent-exposed cysteine residues were substituted with alanine residues, and two constructs were engineered with Cys substitutions at surface residues R383 and K441 (in the B and C domains, respectively; termed BC) and at K30 and K441 (in the A and C domains, respectively; termed AC) for labeling with spectroscopic probes such as appropriate donor–acceptor fluorophores for FRET (for the purpose of this report, these are considered the WT forms of AC and BC). A variant of the BC construct corresponding to the disease-associated mutant (R420Q) was also prepared. For this site-directed mutagenesis work, we used the QuikChange (Stratagene) and Phusion High-Fidelity PCR (Thermo Fisher Scientific) kits. The WT-NTR, R420Q-NTR, AC- and BC-NTR, AC- and BC-R420Q-NTR protein constructs were expressed in Escherichia coli Rosetta (DE3) pLacI cells at 18 °C and purified with a protocol adapted from previously published work ([26]). An amylose column was first applied after the cells were lysed by ultrasonication. The protein in the elution was then cleaved using TEV protease. The cleaved crude protein went through the second amylose column to separate from the MBP and then followed by a Superdex S-200 size exclusion column in a buffer consisting of 250 mM KCl, 10 mM HEPES, and 14 mM β-mercaptoethanol (pH 7.4). The NTR protein (3 μM) was then incubated in 10 mM HEPES, 250 mM KCl (pH 7.4, 2 h, 21 °C) with the fluorescent probes Alexa Fluor 488 maleimide (AF488, donor; 40 μM) and Alexa Fluor 568 maleimide (AF568, acceptor; 60 μM). The maleimide of the dye reacts with the thiols the Cys residues engineered into NTR, forming a covalently labeled protein. The Alexa dyes were added last to the reaction mixture, from 10 mM DMSO stock solutions. This reaction is not selective to one site (K30C or K441C), and we anticipate that there is a mixed population with K30C or K441C labeled with either AF488 (donor) or AF568 (acceptor). We focused on maximizing the fraction containing donor–acceptor pairs, thus maximizing FRET efficiency and the precision for detecting a change in structure as an indication that a compound interacts with the NTR biosensor. The labeling efficiency was determined by comparing the molar concentration of the bound dye, determined from UV-Vis absorbance, to the protein concentration, determined from gel densitometry. Essentially complete labeling was confirmed from electrospray ionization mass spectrometry. CD spectra of the WT-NTR and mutant R420Q-NTR constructs before and after labeling were recorded using a JASCO J-815 CD spectrometer (JASCO), confirming similar folding (Fig. S1).
The 1536-well assay plates were prepared as described in our previous reports ([21]). The LOPAC (Sigma-Aldrich) collection received in 96-well plates was reformatted into 384-well polypropylene intermediate plates (Greiner Bio-One) using a multichannel liquid handler, BioMek FX (Beckman Coulter), then transferred to 384-well Echo Qualified source plates (Labcyte Inc). Assay plates were prepared as previously described ([20]). On screening days, these plates were thawed out and were loaded with labeled NTR (5 μl, 20 nM final concentration) using a Multidrop Combi automated sample dispenser.
HTS measurements were conducted in a prototype top-read FLT plate reader (FLT-PR, Fluorescence Innovations, Inc), which reads each 1536-well plate in ∼3 min ([63], [64]). AF488 donor fluorescence was excited with a 473 nm microchip laser from Concepts Research Corporation, and the emission signal was split into two channels by a dichroic mirror and acquired with 517 ± 10 nm (channel 1) and 535 ± 7 nm band-pass filters (channel 2) (Semrock). […]

[2] = target: T2, RyR2 (Sus scrofa, UniProt A0A5G2R1W3); assay: [3H]ryanodine binding to cardiac SR (CSR) vesicles; format: biochemical, pig; settings: for effect on [3H]ryanodine binding to RyR2: cardiac SR; for pEC50: Table S4, read-out: EC50, [3H]ryanodine binding, cardiac SR
T2 construct: from tissue; host or cells: porcine cardiac left ventricle, crude SR vesicles
Method: (§1) Crude sarcoplasmic reticulum membrane vesicles were isolated from porcine longissimus dorsi muscle and porcine cardiac left ventricle tissue by differential centrifugation of homogenized tissue, as established previously ([65]). Skeletal heavy SR (HSR) vesicles, which are enriched with RyR1, were isolated by fractionation of crude skeletal SR vesicles using a discontinuous sucrose gradient, in accordance with our published work ([65]). All vesicles were flash-frozen and stored at −80 °C.
(§2) In 96-well plates, skeletal SR membranes (HSR, 1 mg/ml) and cardiac SR membranes (CSR, 3 mg/ml) were preincubated with 1% DMSO or hit compound for 30 min at 22 °C in a solution containing 150 mM KCl, 5 mM GSH, 1 μg/ml Aprotinin/Leupeptin, 1 mM EGTA, and 65 μM or 1.02 mM CaCl2 (as determined by MaxChelator to yield 30 nM or 30 μM of free Ca^2+, respectively), 0.1 mg/ml of BSA, and 20 mM K-PIPES (pH 7.0). Nonspecific [^3H]ryanodine binding to SR was assessed by addition of 40 μM nonradioactively labeled ryanodine. Maximal [^3H]ryanodine binding was assessed by addition of 5 mM adenylyl-imidodiphosphate (AMP-PNP), and in the case of CSR, 20 mM caffeine was added. These control samples were each loaded over four wells per plate. Binding of [^3H]ryanodine (7.5 and 10 nM for CSR and HSR, respectively) was determined following a 3 h incubation at 37 °C and filtration through grade GF/B glass microfiber filters (Brandel Inc) using a Brandel Harvester. In 4 ml of Ecolite scintillation cocktail (MP biomedicals), [^3H]ryanodine retained on the filter was counted using a Beckman LS6000 scintillation counter.

[3] = target: T3, RyR1 (Sus scrofa, UniProt P16960); assay: [3H]ryanodine binding to skeletal SR (HSR) vesicles; format: biochemical, pig; settings: for pEC50: Table S4, read-out: EC50, [3H]ryanodine binding, skeletal HSR; for maximum inhibitory effect on [3H]ryanodine binding / effect on [3H]ryanodine binding to RyR1: skeletal SR; for maximum inhibitory effect on [3H]ryanodine binding: 30 nM Ca2+; for effect on [3H]ryanodine binding to RyR1: 30 μM Ca2+
T3 construct: from tissue; host or cells: porcine longissimus dorsi muscle, heavy SR vesicles
Method: as §1, §2

[4] = test system: RyR; design: method as in PMID 27760856, PMID 32019969; settings: cited from earlier work
[5] = AC-NTR biosensor, Hill fit, Table S4, read-out: EC50, FRET dose-response

T2 sequence (A0A5G2R1W3 20-4900): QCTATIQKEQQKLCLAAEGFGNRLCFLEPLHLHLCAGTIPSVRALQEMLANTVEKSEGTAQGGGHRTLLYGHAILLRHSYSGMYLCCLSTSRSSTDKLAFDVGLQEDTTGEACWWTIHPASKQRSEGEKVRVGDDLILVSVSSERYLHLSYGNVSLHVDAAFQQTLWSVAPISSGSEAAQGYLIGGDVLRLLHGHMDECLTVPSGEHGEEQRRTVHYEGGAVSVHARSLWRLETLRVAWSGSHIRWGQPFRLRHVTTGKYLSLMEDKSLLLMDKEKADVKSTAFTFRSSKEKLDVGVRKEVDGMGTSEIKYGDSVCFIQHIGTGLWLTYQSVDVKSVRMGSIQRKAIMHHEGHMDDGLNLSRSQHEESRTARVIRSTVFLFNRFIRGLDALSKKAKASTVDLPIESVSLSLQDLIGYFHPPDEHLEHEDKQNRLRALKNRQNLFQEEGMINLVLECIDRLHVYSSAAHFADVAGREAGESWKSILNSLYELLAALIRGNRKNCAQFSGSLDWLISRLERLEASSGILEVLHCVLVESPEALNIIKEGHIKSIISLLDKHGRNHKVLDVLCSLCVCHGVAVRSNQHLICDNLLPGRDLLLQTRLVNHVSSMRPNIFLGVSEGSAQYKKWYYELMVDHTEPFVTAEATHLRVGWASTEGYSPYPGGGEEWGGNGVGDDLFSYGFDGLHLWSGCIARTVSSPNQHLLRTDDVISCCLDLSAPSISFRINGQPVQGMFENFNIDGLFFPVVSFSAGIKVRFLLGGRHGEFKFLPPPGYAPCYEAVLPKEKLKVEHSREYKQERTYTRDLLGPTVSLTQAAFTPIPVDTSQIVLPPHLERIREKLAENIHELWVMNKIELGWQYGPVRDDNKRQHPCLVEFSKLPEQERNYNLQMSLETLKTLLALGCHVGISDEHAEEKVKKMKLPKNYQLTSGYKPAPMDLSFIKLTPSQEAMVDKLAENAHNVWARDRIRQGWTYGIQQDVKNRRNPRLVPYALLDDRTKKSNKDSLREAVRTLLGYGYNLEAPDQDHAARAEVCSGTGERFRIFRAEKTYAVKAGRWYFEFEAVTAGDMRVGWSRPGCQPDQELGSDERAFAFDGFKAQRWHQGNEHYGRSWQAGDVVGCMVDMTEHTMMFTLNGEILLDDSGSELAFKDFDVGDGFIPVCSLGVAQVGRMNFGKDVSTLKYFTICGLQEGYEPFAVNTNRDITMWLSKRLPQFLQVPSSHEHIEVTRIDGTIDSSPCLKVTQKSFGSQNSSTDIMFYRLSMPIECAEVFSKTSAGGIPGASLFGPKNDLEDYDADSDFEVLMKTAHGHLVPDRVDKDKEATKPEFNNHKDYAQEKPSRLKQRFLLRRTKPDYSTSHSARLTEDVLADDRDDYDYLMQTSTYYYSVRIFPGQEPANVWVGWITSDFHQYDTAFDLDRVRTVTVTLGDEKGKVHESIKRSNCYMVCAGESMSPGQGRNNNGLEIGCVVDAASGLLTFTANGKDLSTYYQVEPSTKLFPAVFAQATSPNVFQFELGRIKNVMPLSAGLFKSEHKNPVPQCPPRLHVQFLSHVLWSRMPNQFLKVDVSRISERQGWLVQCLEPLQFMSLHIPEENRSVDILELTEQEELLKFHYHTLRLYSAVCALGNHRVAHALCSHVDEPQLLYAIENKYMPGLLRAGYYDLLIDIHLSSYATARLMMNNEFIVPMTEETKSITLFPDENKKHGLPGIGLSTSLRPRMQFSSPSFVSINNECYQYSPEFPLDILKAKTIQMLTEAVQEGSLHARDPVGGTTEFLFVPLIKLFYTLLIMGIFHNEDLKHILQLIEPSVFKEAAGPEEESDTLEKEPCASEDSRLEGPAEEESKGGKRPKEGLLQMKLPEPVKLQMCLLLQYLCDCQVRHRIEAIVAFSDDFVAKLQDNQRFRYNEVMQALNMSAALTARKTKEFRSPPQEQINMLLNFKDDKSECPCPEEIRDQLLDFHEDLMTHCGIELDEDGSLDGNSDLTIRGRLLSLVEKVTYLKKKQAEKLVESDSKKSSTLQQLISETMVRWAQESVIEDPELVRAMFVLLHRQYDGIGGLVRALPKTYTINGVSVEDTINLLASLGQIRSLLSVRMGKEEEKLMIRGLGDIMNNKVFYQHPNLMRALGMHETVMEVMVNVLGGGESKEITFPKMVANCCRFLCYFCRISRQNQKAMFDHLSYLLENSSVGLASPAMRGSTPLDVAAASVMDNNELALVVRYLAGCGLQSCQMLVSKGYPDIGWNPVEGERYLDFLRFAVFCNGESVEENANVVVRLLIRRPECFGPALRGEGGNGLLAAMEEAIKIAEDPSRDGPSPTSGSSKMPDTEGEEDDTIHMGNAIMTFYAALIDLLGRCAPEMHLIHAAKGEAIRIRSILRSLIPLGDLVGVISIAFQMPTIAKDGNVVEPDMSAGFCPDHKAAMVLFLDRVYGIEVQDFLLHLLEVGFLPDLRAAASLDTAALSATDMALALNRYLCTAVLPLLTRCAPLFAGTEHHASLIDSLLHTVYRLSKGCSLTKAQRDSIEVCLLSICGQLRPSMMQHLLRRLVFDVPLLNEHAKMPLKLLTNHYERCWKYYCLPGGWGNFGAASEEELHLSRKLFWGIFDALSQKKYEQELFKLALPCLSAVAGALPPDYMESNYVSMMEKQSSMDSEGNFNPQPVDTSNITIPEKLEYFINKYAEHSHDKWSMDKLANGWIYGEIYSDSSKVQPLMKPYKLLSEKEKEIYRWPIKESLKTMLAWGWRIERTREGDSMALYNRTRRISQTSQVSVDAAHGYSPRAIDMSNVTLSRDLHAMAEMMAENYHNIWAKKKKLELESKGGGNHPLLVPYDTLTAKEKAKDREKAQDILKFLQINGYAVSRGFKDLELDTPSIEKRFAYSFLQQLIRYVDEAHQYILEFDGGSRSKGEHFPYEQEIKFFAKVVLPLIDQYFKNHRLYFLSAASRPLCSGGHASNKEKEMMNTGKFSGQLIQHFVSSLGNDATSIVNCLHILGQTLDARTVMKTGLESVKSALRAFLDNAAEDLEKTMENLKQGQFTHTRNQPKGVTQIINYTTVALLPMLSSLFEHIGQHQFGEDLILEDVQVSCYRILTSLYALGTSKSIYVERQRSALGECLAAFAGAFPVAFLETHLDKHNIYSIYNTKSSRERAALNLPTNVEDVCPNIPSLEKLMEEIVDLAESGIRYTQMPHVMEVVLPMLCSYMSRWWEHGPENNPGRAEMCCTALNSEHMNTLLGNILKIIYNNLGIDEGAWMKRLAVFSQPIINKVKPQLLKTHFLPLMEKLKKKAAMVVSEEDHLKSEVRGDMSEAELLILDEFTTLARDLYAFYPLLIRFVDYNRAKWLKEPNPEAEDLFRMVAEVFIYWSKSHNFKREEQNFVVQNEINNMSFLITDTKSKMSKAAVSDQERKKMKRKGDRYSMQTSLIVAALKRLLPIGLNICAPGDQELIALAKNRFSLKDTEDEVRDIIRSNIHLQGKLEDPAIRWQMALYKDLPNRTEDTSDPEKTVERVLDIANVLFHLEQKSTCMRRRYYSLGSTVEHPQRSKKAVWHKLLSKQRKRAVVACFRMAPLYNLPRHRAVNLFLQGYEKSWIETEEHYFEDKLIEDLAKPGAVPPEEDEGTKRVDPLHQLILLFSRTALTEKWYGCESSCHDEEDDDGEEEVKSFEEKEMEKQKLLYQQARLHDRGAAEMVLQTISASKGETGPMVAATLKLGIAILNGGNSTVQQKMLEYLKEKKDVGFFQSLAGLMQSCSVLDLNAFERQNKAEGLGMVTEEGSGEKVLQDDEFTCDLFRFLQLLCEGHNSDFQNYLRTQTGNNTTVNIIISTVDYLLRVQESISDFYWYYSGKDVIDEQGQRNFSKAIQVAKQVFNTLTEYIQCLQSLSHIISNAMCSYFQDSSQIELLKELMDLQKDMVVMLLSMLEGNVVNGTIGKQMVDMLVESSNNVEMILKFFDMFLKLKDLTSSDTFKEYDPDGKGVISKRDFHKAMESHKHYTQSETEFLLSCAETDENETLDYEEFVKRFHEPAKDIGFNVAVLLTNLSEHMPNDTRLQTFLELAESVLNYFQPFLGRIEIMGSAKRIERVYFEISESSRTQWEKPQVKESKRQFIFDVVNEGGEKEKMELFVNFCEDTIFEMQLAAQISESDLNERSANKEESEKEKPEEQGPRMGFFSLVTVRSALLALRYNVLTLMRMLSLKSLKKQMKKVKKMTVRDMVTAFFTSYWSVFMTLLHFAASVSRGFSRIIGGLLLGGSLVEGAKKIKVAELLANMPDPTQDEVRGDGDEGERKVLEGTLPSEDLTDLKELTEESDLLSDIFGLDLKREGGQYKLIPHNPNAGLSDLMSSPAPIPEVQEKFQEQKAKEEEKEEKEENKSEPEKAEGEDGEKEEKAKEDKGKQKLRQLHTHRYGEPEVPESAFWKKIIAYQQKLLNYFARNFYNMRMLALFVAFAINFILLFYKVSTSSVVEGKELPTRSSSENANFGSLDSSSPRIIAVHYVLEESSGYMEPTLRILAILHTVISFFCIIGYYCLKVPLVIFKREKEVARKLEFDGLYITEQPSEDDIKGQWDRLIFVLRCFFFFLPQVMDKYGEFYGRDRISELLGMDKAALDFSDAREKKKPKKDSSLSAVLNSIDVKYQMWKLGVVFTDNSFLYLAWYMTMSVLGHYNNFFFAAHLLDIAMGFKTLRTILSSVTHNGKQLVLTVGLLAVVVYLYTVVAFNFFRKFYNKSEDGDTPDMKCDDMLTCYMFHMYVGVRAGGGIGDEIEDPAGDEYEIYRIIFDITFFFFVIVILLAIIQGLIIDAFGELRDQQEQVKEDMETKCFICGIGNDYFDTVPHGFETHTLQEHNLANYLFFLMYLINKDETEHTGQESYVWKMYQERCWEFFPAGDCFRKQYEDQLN

SMILES: CC/C(=C(\c1ccccc1)c1ccc(OCCN(C)C)cc1)c1ccccc1 [tamoxifen]
- decrease of donor-only FLT as share of the FLT change in the donor-acceptor sample [1]: > 50%

SMILES: CSc1c(C)c(SC)n2ccncc12 [oltipraz M2, 7-Methyl-6,8-bis(methylthio)-pyrrolo[1,2-a]pyrazine]
- effect on [3H]ryanodine binding to RyR2 ([2]; 30 nM Ca2+): almost no effect
- effect on [3H]ryanodine binding to RyR2 ([2]; 30 μM Ca2+): did not significantly alter
- pEC50 ([3]; [Ca2+] 30 nM): 8.30
- maximum inhibitory effect on [3H]ryanodine binding [3]: ~50%
- effect on [3H]ryanodine binding to RyR1 [3]: only slightly affected
- pEC50 [1, 5]: 4.66
- saturation of FRET dose-response [1]: did not reach saturation within the tested concentration range

SMILES: Nc1ccc(-c2nc3ccc(-c4nc5ccc(N)cc5[nH]4)cc3[nH]2)cc1 [Ro 90-7501, 2'-(4-Aminophenyl)-1H,1'H-2,5'-bibenzimidazol-5-amine]
- pEC50 ([1]; hits that increased FLT, read-out: EC50 (FRET dose-response)): > 6.00
- effect on RyR [4]: inhibitory

SMILES: CO[C@H]1C[C@@H]2CC[C@@H](C)[C@@](O)(O2)C(=O)C(=O)N2CCCC[C@H]2C(=O)O[C@H]([C@H](C)C[C@@H]2CC[C@@H](OC(=O)C(C)(CO)CO)[C@H](OC)C2)CC(=O)[C@H](C)/C=C(\C)[C@@H](O)[C@@H](OC)C(=O)[C@H](C)C[C@H](C)/C=C/C=C/C=C/1C [temsirolimus, (1R,2R,4S)-4-{(2R)-2-[(3S,6R,7E,9R,10R,12R,14S,15E,17E,19E,21S,23S,26R,27R,34aS)-9,27-dihydroxy-10,21-dimethoxy-6,8,12,14,20,26-hexamethyl-1,5,11,28,29-pentaoxo-1,4,5,6,9,10,11,12,13,14,21,22,23,24,25,26,27,28,29,31,32,33,34,34a-tetracosahydro-3H-23,27-epoxypyrido[2,1-c][1,4]oxazacyclohentriacontin-3-yl]propyl}-2-methoxycyclohexyl 3-hydroxy-2-(hydroxymethyl)-2-methylpropanoate]
- pEC50 ([1]; read-out: EC50 (FRET dose-response), hits that increased FLT): > 6.00

SMILES: CN(C)c1ccccc1CN1CCCN(Cc2ccccc2N(C)C)C1c1ccncc1 [GANT61, 2-[[3-[[2-(dimethylamino)phenyl]methyl]-2-pyridin-4-yl-1,3-diazinan-1-yl]methyl]-N,N-dimethylaniline]
- pEC50 ([2]; [Ca2+] 30 nM): 8.40
- pEC50 ([2]; [Ca2+], 30 µM): 4.76
- effect on [3H]ryanodine binding to RyR2 ([2]; 30 μM Ca2+): inhibitor at concentration >1 μM
- pEC50 ([3]; [Ca2+] 30 nM): 8.40
- pEC50 ([3]; [Ca2+], 30 µM): 5.03
- maximum inhibitory effect on [3H]ryanodine binding [3]: ~50%
- effect on [3H]ryanodine binding to RyR1 [3]: gradual inhibition at concentrations >1 μM
- pEC50 [1, 5]: 4.80
- saturation of FRET dose-response [1]: did not reach saturation within the tested concentration range

SMILES: C=CC[C@@H]1/C=C(\C)C[C@H](C)C[C@H](OC)[C@H]2O[C@@](O)(C(=O)C(=O)N3CCCC[C@H]3C(=O)O[C@H](/C(C)=C/[C@@H]3CC[C@@H](O)[C@H](OC)C3)[C@H](C)[C@@H](O)CC1=O)[C@H](C)C[C@@H]2OC [tacrolimus, (3S,4R,5S,8R,9E,12S,14S,15R,16S,18R,19R,26aS)-5,19-dihydroxy-3-{(1E)-1-[(1R,3R,4R)-4-hydroxy-3-methoxycyclohexyl]prop-1-en-2-yl}-14,16-dimethoxy-4,10,12,18-tetramethyl-8-(prop-2-en-1-yl)-5,6,8,11,12,13,14,15,16,17,18,19,24,25,26,26a-hexadecahydro-3H-15,19-epoxypyrido[2,1-c][1,4]oxazacyclotricosine-1,7,20,21(4H,23H)-tetrone]
- ΔFLT ([1]; AC-NTR biosensor): ≈ 0.1 ns
- effect on RyR [4]: activatory

SMILES: O=C(c1ccc(Cl)cc1)N1CCN(c2ccc([N+](=O)[O-])c3ncccc23)CC1 [CPNQ, 5-[4-(4-Chlorobenzoyl)-1-piperazinyl]-8-nitroquinoline]
- pEC50 ([2]; [Ca2+] 30 nM): 7.70
- effect on [3H]ryanodine binding to RyR2 ([2]; 30 nM Ca2+): inhibitory trend
- effect on [3H]ryanodine binding to RyR2 ([2]; 30 μM Ca2+): did not significantly alter
- pEC50 ([3]; [Ca2+] 30 nM): 7.70
- maximum inhibitory effect on [3H]ryanodine binding [3]: approximately 30%
- effect on [3H]ryanodine binding to RyR1 [3]: only slightly affected
- ΔFLT ([1]; AC-NTR biosensor): ≈ 0.35 ns
- pEC50 [1, 5]: 5.89

SMILES: COc1ccc(/C=C/c2nc(NCCCN(C)C)c3ccccc3n2)cc1 [CP-31398]
- decrease of donor-only FLT as share of the FLT change in the donor-acceptor sample [1]: > 50%
